In brackets after ≈: the same amount, converted by molar mass.
Columns and labels:
[1] = Solubility of the compound in water; type: physicochemical
[2] = AUC (0 to 24 hrs) in iv dosed Crl:CD(SD) rat; type: ADME, organism-based; design: time < 24 hr, route intravenous; details: plasma

Row | solubility [1] [mM] | AUC(0-t) at 24 h [2] [ng·h/mL] | SMILES
1 | 350 (≈ 199 mg/mL) | – | O=C(CCC(=O)NC(COC(CO)CO)COC(CO)CO)NCCCCCCCCNC(=O)c1ccccc1
2 | 21 (≈ 12.8 mg/mL) | – | O=C(CCC(=O)N(CC(=O)NC(CO)CO)CC(=O)NC(CO)CO)NCCCCCCCCNC(=O)c1ccccc1
3 | – | 95100 | CCCCCCCCCCCCCCCCCC(=O)OCC(CO[P+]([O-])(O)OCCNC(=O)CCC(=O)N(CC(=O)NC(COC(COC(CO)CO)COC(CO)CO)COC(COC(CO)CO)COC(CO)CO)CC(=O)NC(COC(COC(CO)CO)COC(CO)CO)COC(COC(CO)CO)COC(CO)CO)OC(=O)CCCCCCCCCCCCCCCCC (centres undefined)
4 | – | 53100 | CCCCCCCCCCCCCCCCCC(=O)OCC(CO[P+]([O-])(O)OCCNC(=O)CCC(=O)N(CC(=O)N(CC(=O)NC(COC(CO)CO)COC(CO)CO)CC(=O)NC(COC(CO)CO)COC(CO)CO)CC(=O)N(CC(=O)NC(COC(CO)CO)COC(CO)CO)CC(=O)NC(COC(CO)CO)COC(CO)CO)OC(=O)CCCCCCCCCCCCCCCCC (centres undefined)

Source: ChEMBL document CHEMBL1806349, “Improved performance by replacing iminodiacetic residues with glyceryl residues in symmetrically branched oligoglycerols” (Bioorg Med Chem Lett, 2011)
